Data published in patent US11760773B2, “Small molecule drug conjugates of gemcitabine monophosphate” (MaveriX Oncology, Inc., priority 2018, dated 2023).

How the values were obtained:
Type in all cases: in vivo
[1] = Comparative plasma PK of Int 1-4 versus gemcitabine in mouse (study a); conditions: CD-1 mice; for AUC0-inf/AUC0-last / AUC0-last / AUC(0-inf) / Cmax / MRT0-inf / MRT0-last / T1/2 / Tmax: plasma
[2] = Comparative plasma PK of Compound 1 versus Int 1-4 in male CD-1 mice (study b)
Procedure: Objectives: to compare the plasma pharmacokinetics and stability of Compound 1 with its non-phosphorylated SMDC analog (Int 1-4) and in plasma following a single intravenous infusion administration of Compound 1 at 11.6 mg/kg and 23.2 mg/kg with Int 1-4 (formulation F1 & F2) at 10.0 mg/kg in male CD-1 mice
PK measurements: compare PK parameters C0, CL, Vdss, Cmax, tmax, t1/2, AUC(0-t), AUC(0-inf), MRT(0-t), MRT(0-inf) for Compound 1 and Int 1-4

[3] = Int 1-4 plasma PK in the male cynomolgus monkey (study f)
Procedure: Objectives: to compare the plasma pharmacokinetics and stability of Int 1-4 in plasma following single intravenous infusion administration of Int 1-4 at 5 mg/kg and 10 mg/kg in the male cynomolgus monkey
PK measurements: compare PK parameters C0, CL, Vdss, Cmax, tmax, t, AUC(0-t), AUC(0-inf), MRT(0-t), MRT(0-inf) for Int 1-4

[4] = Int 1-4 and gemcitabine comparative PK in male cynomolgus monkey (study g); conditions: plasma, male cynomolgus monkey
Procedure: Objectives: to compare the plasma pharmacokinetics and stability of Int 1-4 versus gemcitabine in plasma following single intravenous infusion administration of Int 1-4 at 5 mg/kg and 10 mg/kg with equimolar gemcitabine at 2.65 mg/kg and 5.29 mg/kg in male cynomolgous monkeys
PK measurements: compare PK parameters C0, CL, Vdss, Cmax, tmax, t1/2, AUC(0-t), AUC(0-inf), MRT(0-t), MRT(0-inf) for Int 1-4 with gemcitabine

[5] = Int 1-4 dog plasma PK (study j); conditions: male beagle dog
Procedure: Objectives: to compare the plasma pharmacokinetics and stability of Int 1-4 in plasma following single intravenous infusion administration of t 1-4 at 10 mg/kg and 20 mg/kg in the male Beagle dog.

[6] = Comparative dog plasma PK of Int 1-4 versus gemcitabine (study k); conditions: male beagle dog
Procedure: Objectives: to compare the plasma pharmacokinetics and stability of Int-4 in plasma following single intravenous infusion administration of Int 1-4 at 5 mg/kg and 10 mg/kg versus gemcitabine at 5 mg/kg in the male Beagle dog

[7] = after iv gemcitabine 5.29 mg/kg
[8] = after iv Int 1-4 10.0 mg/kg, Formulation 1
[9] = after iv Int 1-4 10.0 mg/kg, Formulation 2
[10] = after iv Int 1-4 5 mg/kg (study f)
[11] = after iv Int 1-4 10 mg/kg (study f)
[12] = after iv Int 1-4 5 mg/kg (study g)
[13] = after iv Int 1-4 10 mg/kg (study g)
[14] = after iv gemcitabine 2.65 mg/kg
[15] = after iv Int 1-4 10 mg/kg (study j)
[16] = after iv Int 1-4 20 mg/kg (study j)
[17] = after iv Int 1-4 5 mg/kg (study k)
[18] = after iv Int 1-4 10 mg/kg (study k)

For `O=c1ccn(C2OC(CO)C(O)C2(F)F)c(=O)[nH]1` (stereo not shown) [dFdU], the “plasma levels of dFdU higher than gemcitabine, based on the ratios of AUC0-last” value [1, 7] was roughly 500%, the AUC0-inf/AUC0-last ([1]; after iv Int 1-4 9.4 mg/kg) was 120% and the AUC0-last ([1]; after iv Int 1-4 9.4 mg/kg) was 1039 ng·h/mL. For the same molecule, the AUC(0-inf) ([1]; after iv Int 1-4 9.4 mg/kg) was 1440 ng·h/mL, the Cmax ([1]; after iv Int 1-4 9.4 mg/kg) was 253 ng/mL and the MRT0-inf ([1]; after iv Int 1-4 9.4 mg/kg) was 4.65 h. For the same molecule, the MRT0-last ([1]; after iv Int 1-4 9.4 mg/kg) was 2.73 h, the T1/2 ([1]; after iv Int 1-4 9.4 mg/kg) was 3.08 h and the Tmax ([1]; after iv Int 1-4 9.4 mg/kg) was 60 min. It also gave an AUC0-inf/AUC0-last [1, 7] of 111%, an AUC0-last [1, 7] of 6827 ng·h/mL and an AUC(0-inf) [1, 7] of 8187 ng·h/mL. It also gave a Cmax [1, 7] of 1600 ng/mL, an MRT0-inf [1, 7] of 3.49 h and an MRT0-last [1, 7] of 2.56 h. The T1/2 [1, 7] was 2.23 h, the Tmax [1, 7] was 40 min and the AUC0-last ([2]; after iv Compound 1 11.6 mg/kg) was 967 ng·h/mL. For the same molecule, the AUC(0-inf) ([2]; after iv Compound 1 11.6 mg/kg) was 786 ng·h/mL, the Cmax ([2]; after iv Compound 1 11.6 mg/kg) was 220 ng/mL and the MRT0-inf ([2]; after iv Compound 1 11.6 mg/kg) was 3.81 h. The MRT0-last ([2]; after iv Compound 1 11.6 mg/kg) was 3.70 h, the Tmax ([2]; after iv Compound 1 11.6 mg/kg) was 3.25 h and the t1/2 ([2]; after iv Compound 1 11.6 mg/kg) was 2.38 h. The AUC0-last ([2]; after iv Compound 1 23.2 mg/kg) was 1960 ng·h/mL, the AUC(0-inf) ([2]; after iv Compound 1 23.2 mg/kg) was 1830 ng·h/mL and the Cmax ([2]; after iv Compound 1 23.2 mg/kg) was 378 ng/mL. It also gave an MRT0-inf ([2]; after iv Compound 1 23.2 mg/kg) of 4.48 h, an MRT0-last ([2]; after iv Compound 1 23.2 mg/kg) of 3.65 h and a Tmax ([2]; after iv Compound 1 23.2 mg/kg) of 4.00 h. For the same molecule, the t1/2 ([2]; after iv Compound 1 23.2 mg/kg) was 2.86 h, the AUC0-last [2, 8] was 983 ng·h/mL and the AUC(0-inf) [2, 8] was 1124 ng·h/mL. For the same molecule, the Cmax [2, 8] was 213 ng/mL, the MRT0-inf [2, 8] was 4.67 h and the MRT0-last [2, 8] was 3.59 h. For the same molecule, the Tmax [2, 8] was 4.00 h, the t1/2 [2, 8] was 3.06 h and the AUC0-last [2, 9] was 1106 ng·h/mL. For the same molecule, the AUC(0-inf) [2, 9] was 1625 ng·h/mL, the Cmax [2, 9] was 236 ng/mL and the MRT0-inf [2, 9] was 5.89 h. It also gave an MRT0-last [2, 9] of 3.95 h, a Tmax [2, 9] of 4.00 h and a t1/2 [2, 9] of 4.15 h. For the same molecule, the C0 [3, 10] was 296 ng/mL, the MRT0-last [3, 10] was 30.60 h and the t1/2 [3, 10] was 40.2 min. It also gave a C0 [3, 11] of 747 ng/mL, an MRT0-last [3, 11] of 63.00 h and a t1/2 [3, 11] of 45 min. For the same molecule, the AUC0-last [4, 12] was 4117 ng·h/mL, the AUC(0-inf) [4, 12] was 5555 ng·h/mL and the Cmax [4, 12] was 302 ng/mL. The MRT0-inf [4, 12] was 24.01 h, the MRT0-last [4, 12] was 10.31 h and the Tmax [4, 12] was 101 min. It also gave a t1/2 [4, 12] of 16.86 h, an AUC0-last [4, 13] of 5120 ng·h/mL and an AUC(0-inf) [4, 13] of 7903 ng·h/mL. For the same molecule, the Cmax [4, 13] was 595 ng/mL, the MRT0-inf [4, 13] was 18.02 h and the MRT0-last [4, 13] was 8.30 h. It also gave a Tmax [4, 13] of 40.2 min, a t1/2 [4, 13] of 12.87 h and an AUC0-last [4, 14] of 7703 ng·h/mL. For the same molecule, the AUC(0-inf) [4, 14] was 8837 ng·h/mL, the Cmax [4, 14] was 1973 ng/mL and the MRT0-inf [4, 14] was 9.35 h. It also gave an MRT0-last [4, 14] of 6.41 h, a Tmax [4, 14] of 5.4 min and a t1/2 [4, 14] of 5.89 h. The AUC0-last [5, 15] was 13167 ng·h/mL, the AUC(0-inf) [5, 15] was 14300 ng·h/mL and the Cmax [5, 15] was 1173 ng/mL. The MRT0-inf [5, 15] was 15.33 h, the MRT0-last [5, 15] was 9.20 h and the Tmax [5, 15] was 3.33 h. For the same molecule, the t1/2 [5, 15] was 10.0 h, the AUC0-last [5, 16] was 31267 ng·h/mL and the AUC(0-inf) [5, 16] was 40233 ng·h/mL. The Cmax [5, 16] was 2873 ng/mL, the MRT0-inf [5, 16] was 15.97 h and the MRT0-last [5, 16] was 9.27 h. It also gave a Tmax [5, 16] of 2.00 h, a t1/2 [5, 16] of 10.53 h and an AUC0-last [6, 17] of 9863 ng·h/mL. For the same molecule, the AUC(0-inf) [6, 17] was 13743 ng·h/mL, the Cmax [6, 17] was 715 ng/mL and the MRT0-inf [6, 17] was 18.22 h. For the same molecule, the MRT0-last [6, 17] was 9.89 h, the Tmax [6, 17] was 4.00 h and the t1/2 [6, 17] was 11.79 h. For the same molecule, the AUC0-last [6, 18] was 11700 ng·h/mL, the AUC(0-inf) [6, 18] was 13800 ng·h/mL and the Cmax [6, 18] was 936 ng/mL. The MRT0-inf [6, 18] was 12.99 h, the MRT0-last [6, 18] was 8.94 h and the Tmax [6, 18] was 2.00 h. The t1/2 [6, 18] was 8.40 h, the AUC0-last [6, 7] was 20133 ng·h/mL and the AUC(0-inf) [6, 7] was 23967 ng·h/mL. It also gave a Cmax [6, 7] of 1813 ng/mL, an MRT0-inf [6, 7] of 13.31 h and an MRT0-last [6, 7] of 8.71 h. For the same molecule, the Tmax [6, 7] was 3.00 h.
